Test results: patent US8598211B2, “Carboxamide compounds and their use as calpain inhibitors IV” (AbbVie Inc., priority 2009, dated 2013)

How the values were obtained:
Type in all cases: biochemical
calpain-I = molecular target: T1, calpain-I (Homo sapiens, UniProt P07384); test: Calpain I kinetic fluorescence enzyme inhibition assay; details: calpain-I from human erythrocytes, Suc-Leu-Tyr-AMC, pH 7.3; apparent Ki from IC50 by Cheng-Prussoff
T1 construct: calpain-I—isolated from human erythrocytes; purchased Calbiochem 208713; host or cells: human erythrocytes (natural source)
T1 sequence (P07384 1-714): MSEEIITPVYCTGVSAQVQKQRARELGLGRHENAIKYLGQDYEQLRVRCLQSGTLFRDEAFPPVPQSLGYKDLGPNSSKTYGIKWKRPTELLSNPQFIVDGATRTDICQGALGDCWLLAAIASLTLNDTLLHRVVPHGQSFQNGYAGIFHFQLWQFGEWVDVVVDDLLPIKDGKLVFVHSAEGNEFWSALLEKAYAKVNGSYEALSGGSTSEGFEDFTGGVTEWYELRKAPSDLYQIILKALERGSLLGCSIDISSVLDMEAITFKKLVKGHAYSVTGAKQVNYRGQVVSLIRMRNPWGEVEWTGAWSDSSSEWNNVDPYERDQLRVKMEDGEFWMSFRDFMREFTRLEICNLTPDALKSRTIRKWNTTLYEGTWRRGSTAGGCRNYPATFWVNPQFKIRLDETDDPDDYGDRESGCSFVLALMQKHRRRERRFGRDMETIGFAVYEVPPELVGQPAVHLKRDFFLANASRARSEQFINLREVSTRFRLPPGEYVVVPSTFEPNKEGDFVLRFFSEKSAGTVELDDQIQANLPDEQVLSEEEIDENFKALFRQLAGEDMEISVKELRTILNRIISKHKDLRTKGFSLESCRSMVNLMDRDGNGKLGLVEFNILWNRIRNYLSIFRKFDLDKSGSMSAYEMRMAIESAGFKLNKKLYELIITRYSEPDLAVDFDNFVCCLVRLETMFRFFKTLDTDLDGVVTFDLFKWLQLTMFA
T1 sequence (P04632 1-268 partner): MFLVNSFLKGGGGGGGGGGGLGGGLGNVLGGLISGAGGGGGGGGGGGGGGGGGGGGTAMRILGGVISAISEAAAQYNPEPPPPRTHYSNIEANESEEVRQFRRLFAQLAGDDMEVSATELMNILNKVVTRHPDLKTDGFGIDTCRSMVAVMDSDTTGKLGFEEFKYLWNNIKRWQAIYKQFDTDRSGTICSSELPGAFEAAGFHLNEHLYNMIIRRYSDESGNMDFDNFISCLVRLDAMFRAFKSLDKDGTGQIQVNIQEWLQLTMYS
Method: Testing for blockade of the corresponding enzymic activities was carried out by means of kinetic fluorescence assays (excitation 390 nm, emission 460 nm).
Apparent Ki values were calculated from the experimentally determined IC50 values by the Cheng-Prussoff relation assuming a reversible competitive enzyme inhibition.
20 nM calpain-I—isolated from human erythrocytes (Calbiochem #208713), 100 μM Suc-Leu-Tyr-AMC (Bachem #I-1355) as substrate in buffer with 62 mM imidazole, 0.3 mM CaCl2, 0.10% CHAPS, 0.05% BSA, 1 mM DTT at pH 7.3 and room temperature.

cathepsin B = molecular target: T2, cathepsin B (Homo sapiens, UniProt P07858); test: Cathepsin B kinetic fluorescence enzyme inhibition assay; details: selectivity ratio versus calpain
T2 construct: cathepsin B—isolated from human liver; purchased Calbiochem 219362; host or cells: human liver (natural source)
Method: 0.25 nM cathepsin B—isolated from human liver (Calbiochem #219362), 100 μM Z-Phe-Arg-AMC (Bachem #I-1160) as substrate 50 mM MES, 2 mM EDTA, 0.05% Brij 35, 2.5 mM L-cysteine, pH 6.0, room temperature.

cathepsin K = molecular target: T3, cathepsin K (Homo sapiens, UniProt P43235); test: Cathepsin K kinetic fluorescence enzyme inhibition assay; details: selectivity ratio versus calpain
T3 construct: purchased Calbiochem 342001; host or cells: E. coli
T3 sequence (P43235 115-329): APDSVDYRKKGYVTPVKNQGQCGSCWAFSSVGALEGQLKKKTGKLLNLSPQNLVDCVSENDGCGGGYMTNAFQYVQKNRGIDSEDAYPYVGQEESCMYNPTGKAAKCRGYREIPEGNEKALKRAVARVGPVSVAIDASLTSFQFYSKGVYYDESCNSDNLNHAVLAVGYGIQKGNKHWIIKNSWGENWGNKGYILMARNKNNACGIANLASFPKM
Method: 3 nM cathepsin K—activated from recombinant human procathepsin K from E. coli (Calbiochem #342001), 10 μM Z-Gly-Pro-Arg-AMC (Biomol #P-142) as substrate in 50 mM MES, 2 mM EDTA, 0.05% Brij 35, 2.5 mM L-cysteine, pH 6.0, room temperature.

cathepsin L = molecular target: T4, cathepsin L (Homo sapiens, UniProt P07711); test: Cathepsin L kinetic fluorescence enzyme inhibition assay; details: selectivity ratio versus calpain
T4 construct: cathepsin L—isolated from human liver; purchased Calbiochem 219402; host or cells: human liver (natural source)
T4 sequence (P07711 114-333): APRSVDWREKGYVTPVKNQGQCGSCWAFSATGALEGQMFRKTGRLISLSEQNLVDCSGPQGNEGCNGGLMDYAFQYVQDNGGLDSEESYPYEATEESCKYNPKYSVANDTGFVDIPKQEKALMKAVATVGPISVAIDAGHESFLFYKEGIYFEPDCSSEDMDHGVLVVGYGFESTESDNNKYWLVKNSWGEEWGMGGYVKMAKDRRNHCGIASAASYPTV
Method: 1 nM cathepsin L—isolated from human liver (Calbiochem #219402), 2 μM Z-Phe-Arg-AMC (Bachem #I-1160) as substrate in 50 mM MES, 2 mM EDTA, 0.05% Brij 35, 2.5 mM L-cysteine, pH 6.0, room temperature.

cathepsin S = molecular target: T5, cathepsin S (Homo sapiens, UniProt P25774); test: Cathepsin S kinetic fluorescence enzyme inhibition assay; details: selectivity ratio versus calpain
T5 construct: purchased Calbiochem 219343; host or cells: E. coli
T5 sequence (P25774 115-331): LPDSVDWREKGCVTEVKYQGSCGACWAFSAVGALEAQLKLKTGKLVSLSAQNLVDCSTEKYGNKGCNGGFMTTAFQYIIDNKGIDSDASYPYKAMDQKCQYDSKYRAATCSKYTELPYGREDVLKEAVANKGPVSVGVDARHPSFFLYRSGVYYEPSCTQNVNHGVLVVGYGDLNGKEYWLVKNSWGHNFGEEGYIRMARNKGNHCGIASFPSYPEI
Method: 0.5 nM recombinant human cathepsin S from E. coli (Calbiochem #219343), 20 μM Z-Val-Val-Arg-AMC (Bachem #I-1540) as substrate in 50 mM MES, 2 mM EDTA, 0.05% Brij 35, 2.5 mM L-cysteine, pH 6.0, room temperature.

Row | Structure (SMILES) | Ki (calpain-I) [nM] | also measured
1 | O=C(NCc1ncco1)C(=O)C(Cc1ccccc1)NC(=O)c1cccnc1-n1ccc(-c2ccccc2)n1 (centres unmarked) [Example 24, N-{4-[(1,3-Oxazol-2-ylmethyl)amino]-3,4-dioxo-1-phenyl-2-butanyl}-2-(3-phenyl-1H-pyrazol-1-yl)nicotinamide] | 250 to 400 | 
2 | O=C(NC1CC1)C(=O)C(Cc1ccccc1)NC(=O)c1cccnc1-n1cc(F)c(-c2ccccc2)n1 (centres unmarked) [Example 12, N-(4-(Cyclopropylamino)-3,4-dioxo-1-phenylbutan-2-yl)-2-(4-fluoro-3-phenyl-1H-pyrazol-1-yl)nicotinamide] | 400 to 800 | 
3 | O=C(NCCc1ccccc1)C(=O)C(Cc1ccccc1)NC(=O)c1cccnc1-n1ccc(-c2ccccc2)n1 (centres unmarked) [Example 17, N-(3,4-Dioxo-4-(phenethylamino)-1-phenylbutan-2-yl)-2-(3-phenyl-1H-pyrazol-1-yl)nicotinamide] | 250 to 400 | 
4 | O=C(NCCCc1ccccn1)C(=O)C(Cc1ccccc1)NC(=O)c1cccnc1-n1ccc(-c2ccc(F)cc2)n1 (centres unmarked) [Example 4, N-(3,4-Dioxo-1-phenyl-4-{[3-(pyridin-2-yl)propyl]amino}butan-2-yl)-2-[3-(4-fluorophenyl)-1H-pyrazol-1-yl]pyridine-3-carboxamide] | < 250 | 
5 | O=C(NC1CC1)C(=O)C(Cc1ccccc1)NC(=O)c1cccnc1-n1ccc(-c2cccc(N3CCOCC3)c2)n1 (centres unmarked) [Example 26, N-[4-(Cyclopropylamino)-3,4-dioxo-1-phenyl-2-butanyl]-2-{3-[3-(4-morpholinyl)phenyl]-1H-pyrazol-1-yl}nicotinamide] | 400 to 800 | Sel cat. B (Ki(cathepsin B)/Ki(calpain) ratio) (cathepsin B): + (5≦Ki(cathepsin B)/Ki(calpain)≦9); Sel cat. K (Ki(cathepsin K)/Ki(calpain) ratio) (cathepsin K): ++ (9<Ki(cathepsin K)/Ki(calpain)≦30); Sel cat. L (Ki(cathepsin L)/Ki(calpain) ratio) (cathepsin L): ++ (10<Ki(cathepsin L)/Ki(calpain)≦50); Sel cat. S (Ki(cathepsin S)/Ki(calpain) ratio) (cathepsin S): ++ (10<Ki(cathepsin S)/Ki(calpain)≦50)
6 | NC(=O)C(=O)C(Cc1ccccc1)NC(=O)c1cccnc1-n1ccc(-c2ccc(F)cc2)n1 (centres unmarked) [Example 18, N-(3-Amino-1-benzyl-2,3-dioxopropyl)-2-[3-(4-fluorophenyl)-1H-pyrazol-1-yl]nicotinamide, reference compound] | < 250 | 
7 | O=C(NC1CC1)C(=O)C(Cc1ccccc1)NC(=O)c1cccnc1-n1ccc(-c2ccccc2)n1 (centres unmarked) [Example 5, N-[4-(Cyclopropylamino)-3,4-dioxo-1-phenylbutan-2-yl]-2-(3-phenyl-1H-pyrazol-1-yl)pyridine-3-carboxamide] | < 250 | 
8 | O=C(NCc1ccccn1)C(=O)C(Cc1ccccc1)NC(=O)c1cccnc1-n1ccc(-c2ccc(F)cc2)n1 (centres unmarked) [Example 2, N-{3,4-Dioxo-1-phenyl-4-[(pyridin-2-ylmethyl)amino]butan-2-yl}-2-[3-(4-fluorophenyl)-1H-pyrazol-1-yl]pyridine-3-carboxamide] | 250 to 400 | 
9 | O=C(NCC1CC1)C(=O)C(Cc1ccccc1)NC(=O)c1cccnc1-n1ccc(-c2ccccc2)n1 (centres unmarked) [Example 9, N-(4-(Cyclopropylmethylamino)-3,4-dioxo-1-phenylbutan-2-yl)-2-(3-phenyl-1H-pyrazol-1-yl)nicotinamide] | 400 to 800 | 
10 | O=C(NC1CC1)C(=O)C(Cc1ccc(CN2CCOCC2)cc1)NC(=O)c1cccnc1-n1ccc(-c2ccccc2)n1 (centres unmarked) [Example 25, N-{4-(Cyclopropylamino)-1-[4-(4-morpholinylmethyl)phenyl]-3,4-dioxo-2-butanyl}-2-(3-phenyl-1H-pyrazol-1-yl)nicotinamide] | 400 to 800 | Sel cat. S (Ki(cathepsin S)/Ki(calpain) ratio) (cathepsin S): ++ (10<Ki(cathepsin S)/Ki(calpain)≦50)
11 | CCCNC(=O)C(=O)C(Cc1ccccc1)NC(=O)c1cccnc1-n1ccc(-c2ccccc2)n1 (centres unmarked) [Example 11, N-(3,4-Dioxo-1-phenyl-4-(propylamino)butan-2-yl)-2-(3-phenyl-1H-pyrazol-1-yl)nicotinamide] | 400 to 800 | 
12 | O=C(NC1CC1)C(=O)C(Cc1ccccc1)NC(=O)c1cccnc1-n1ccc(-c2ccc(F)cc2)n1 (centres unmarked) [Example 19, N-[4-(Cyclopropylamino)-3,4-dioxo-1-phenyl-2-butanyl]-2-[3-(4-fluorophenyl)-1H-pyrazol-1-yl]nicotinamide] | 800 to 1000 | 
13 | CNC(=O)C(=O)C(Cc1ccccc1)NC(=O)c1cccnc1-n1ccc(-c2ccccc2)n1 (centres unmarked) [Example 7, N-(4-(Methylamino)-3,4-dioxo-1-phenylbutan-2-yl)-2-(3-phenyl-1H-pyrazol-1-yl)nicotinamide, reference compound] | 250 to 400 | 
14 | O=C(NCc1ccccn1)C(=O)C(Cc1ccccc1)NC(=O)c1cccnc1-n1ccc(-c2ccccc2)n1 (centres unmarked) [Example 8, N-[4-(Pyridin-2-ylmethylamino)-3,4-dioxo-1-phenylbutan-2-yl]-2-(3-phenyl-1H-pyrazol-1-yl)pyridine-3-carboxamide] | < 250 | 
15 | O=C(NCc1ccccc1)C(=O)C(Cc1ccccc1)NC(=O)c1cccnc1-n1ccc(-c2ccccc2)n1 (centres unmarked) [Example 16, N-(4-(Benzylamino)-3,4-dioxo-1-phenylbutan-2-yl)-2-(3-phenyl-1H-pyrazol-1-yl)nicotinamide] | < 250 | 
16 | O=C(NC1CC1)C(=O)C(Cc1cccc(F)c1)NC(=O)c1cccnc1-n1ccc(-c2ccccc2)n1 (centres unmarked) [Example 14, N-(4-(Cyclopropylamino)-1-(3-fluorophenyl)-3,4-dioxobutan-2-yl)-2-(3-phenyl-1H-pyrazol-1-yl)nicotinamide] | 250 to 400 | 
17 | O=C(NCc1nc2ccccc2o1)C(=O)C(Cc1ccccc1)NC(=O)c1cccnc1-n1ccc(-c2ccccc2)n1 (centres unmarked) [Example 15, N-{4-[(1,3-Benzoxazol-2-ylmethyl)amino]-3,4-dioxo-1-phenylbutan-2-yl}-2-(3-phenyl-1H-pyrazol-1-yl)pyridine-3-carboxamide] | < 250 | 
18 | COC(=O)CNC(=O)C(=O)C(Cc1ccccc1)NC(=O)c1cccnc1-n1ccc(-c2ccccc2)n1 (centres unmarked) [Example 21, Methyl N-[2-oxo-4-phenyl-3-({[2-(3-phenyl-1H-pyrazol-1-yl)-3-pyridinyl]carbonyl}amino)butanoyl]glycinat] | < 250 | 
19 | O=C(NC1CC1)C(=O)C(Cc1ccc(F)cc1)NC(=O)c1cccnc1-n1ccc(-c2ccccc2)n1 (centres unmarked) [Example 13, N-(4-(Cyclopropylamino)-1-(4-fluorophenyl)-3,4-dioxobutan-2-yl)-2-(3-phenyl-1H-pyrazol-1-yl)nicotinamide] | 400 to 800 | 
20 | C=CCNC(=O)C(=O)C(Cc1ccccc1)NC(=O)c1cccnc1-n1ccc(-c2ccccc2)n1 (centres unmarked) [Example 6, N-[3,4-Dioxo-1-phenyl-4-(prop-2-en-1-ylamino)butan-2-yl]-2-(3-phenyl-1H-pyrazol-1-yl)pyridine-3-carboxamide] | 400 to 800 | 
21 | O=C(NC1CC1)C(=O)C(Cc1ccc(OCCN2CCOCC2)cc1)NC(=O)c1cccnc1-n1ccc(-c2ccccc2)n1 (centres unmarked) [Example 23, N-[4-(Cyclopropylamino)-1-{4-[2-(4-morpholinyl)ethoxy]phenyl}-3,4-dioxo-2-butanyl]-2-(3-phenyl-1H-pyrazol-1-yl)nicotinamide] | 400 to 800 | Sel cat. L (Ki(cathepsin L)/Ki(calpain) ratio) (cathepsin L): ++ (10<Ki(cathepsin L)/Ki(calpain)≦50); Sel cat. S (Ki(cathepsin S)/Ki(calpain) ratio) (cathepsin S): ++ (10<Ki(cathepsin S)/Ki(calpain)≦50)
22 | O=C(NC1CCC1)C(=O)C(Cc1ccccc1)NC(=O)c1cccnc1-n1ccc(-c2ccccc2)n1 (centres unmarked) [Example 10, N-(4-(Cyclobutylamino)-3,4-dioxo-1-phenylbutan-2-yl)-2-(3-phenyl-1H-pyrazol-1-yl)nicotinamide] | 400 to 800 | 
